Measurements published in patent US8389551B2, “Optical enantiomers of phenyramidol and process for chiral synthesis” (Fermenta Biotech (UK) Limited, priority 2006, dated 2013).
Marks after values point to notes of the source that are not given here.

Experiments:
Format in all cases: in vivo
swiss albino mice [1] = assay: Skeletal muscle relaxant activity, Rota rod, second experiment (racemic, S isomer, R isomer); conditions: confirmed by a Rota-rod method
Method: The evaluation of skeletal muscle relaxant activity of the formulations containing phenyramidol racemic, dextro and laevo isomers of oxalate salts in swiss albino mice were carried out using Rota rod apparatus. Each animal was trained only once per day for 5 days. […] Mouse was placed on rota rod only when it achieved the speed of 25 rpm. The ‘fall off time’ in seconds was noted down when the mouse falls from rotating rod. Endurance time was measured up to 120 seconds. The skeletal muscle relaxant activity was assessed using 0 hr, 1 hr, 2 hrs, 4 hrs and 6 hrs time points after the dose administration. A total of 100 mice were selected and randomly distributed into ten main groups with 10 animals per group.
Two efficacy variables were assessed during the experiment: 1. Percent animal falling from the rod was noted; 2. Endurance Time (ET): The time taken for a mouse to fall from the rod was taken as endurance time. The endurance time was taken up to 120 sec and treatment group ET was compared to normal control. These efficacy variables were assessed at five time points 0 hr, 1 hr, 2 hr, 4 hr, and 6 hr for each and every animal.
In another experiment, the studies have been extended to confirm the isomer which is having more skeletal muscle relaxant activity. Control group (R1) receiving only vehicle (water for injection) served as a placebo in the study. […]

swiss albino mice [2] = assay: Analgesic activity, acetic acid induced writhing method
Method: The objective of the study was to evaluate the analgesic activity of the tested formulations of the compounds of the present invention. The test was conducted in Swiss albino mice using acetic acid induced writhing method. A total of 78 pre-screened mice (showing writhing response within 10 minutes*) were divided into 6 groups of 13 animals (6 males+7 females) each. The animals showing no writhing response within 10 mins were excluded. Diclofenac and pentazocine were used as positive controls. The formulations were given orally to the different groups of animals and the number of writhes counted for a period of 15 minutes, after the onset of writhes. If the onset of writhes occurred 30 after 10 minutes the number of writhes was recorded as V. The time of onset of writhes was recorded for each animal.
The control group received 1% gum acacia. The Groups 2, 3, and 4 received the formulations viz: Phen 2; Phen 3 and Phen 4 respectively. Diclofenac and pentazocine were used as positive control and given to groups 5 and 6 respectively. Diclofenac, a potent analgesic & anti-inflammatory agent; and 5 pentazocine an opoid analgesic were selected for comparative evaluation of test formulations. Both these drugs were administered to different groups of animals at the dose of 2 mg/kg. The group 1 (Phen 1) served as—Ve Control group in the study. Phen 5 (Diclofenac—2 mg/kg) and Positive Control: Phen 6 (Pentazocine 2 mg/kg) served as positive controls.
Human daily dose of 2400 mg (800 mg×3 times) was extrapolated to mice for Phen3 and human daily dose of 1200 mg (400 mg×3 times) was extrapolated to mice for Phen2 and Phen 4. The numbers of writhes observed are given below in Table 4 for each formulation.
Further, the evaluation of analgesic activity was carried out using variable dosage forms with different groups. A total of 100 animals (50 males+50 females) were selected randomly and distributed into ten main groups with 10 animals per group (5 M+5 F). Human daily dose of 2400 mg (800 mg×3 times) was extrapolated to mice for Phen 3 (Phenyramidol Racemic (Hydrochloride) and human daily dose of 1200 mg (400 mg×3 times), 1800 mg (400 mg×4.5 times), 2000 mg (400 mg×5 times) & 2400 mg (400 mg×6 times) was extrapolated to mice for Phen2 and Phen4 groups.
The control group 1 received 1% gum acacia and served as negative control group. Groups 2, 3, 4 & 5 received the formulation Phen2. Groups 6, 7, 8 & 9 received the formulation Phen 4 (Isomer 2) & Group 10 received the formulation Phen 3 (Racemic).
Further, one more experiment was done with phenyramidol hydrochloride to evaluate the analgesic activity at lesser dosage levels using acetic acid induced method. A total of 50 animals (25 males+25 females) were selected and randomly distributed into five main groups with 10 animals per group (5 M+5 F). 5 Human daily dose of 600 mg (400×1.5 times) & 1200 mg (800 mg×1.5 times) was extrapolated to mice for Phen 3 (Racemic) and human daily dose of 600 mg (400 mg×1.5 times) was extrapolated to mice for (−) Phenyramidol Hydrochloride & (+) Phenyramidol Hydrochloride and the results are discussed in Table 6.

rats = assay: Anti-arthritic activity, thickness of joint of right paw after injection of formalin
Method: The anti-arthritic activity was assessed using following time points after the injection of formalin 2 hrs, 4 hrs, 8 hrs, 24 hrs, 48 hrs and 72 hrs. The control group (group 1) received 1% gum acacia. The Groups 2, 3, and 4 received the formulations viz: Phen 2, Phen 3 and Phen 4 respectively. Diclofenac was used as positive control and given to group 5. Human daily dose of 2400 mg (800 mg×3 times) was extrapolated to rats for 5 (racemate) Phen 3 and human daily dose of 1200 mg (400 mg×3 times) was extrapolated to rats for (isomer 1) Phen 2 and (isomer 2) Phen 4. Diclofenac sodium 2 mg/Kg was used as reference product.
Initial or 0 hr thickness of the joint of right paw of each animal was recorded. The thickness of the joint was measured using Vernier calipers at different time intervals after the injection of formalin. These efficacy variables were assessed at six time points 2 hrs, 4 hrs, 8 hrs, 24 hrs, 48 hrs and 72 hrs for each and every animal.

Wistar rats = assay: Anti-inflammatory activity, carrageenin induced paw edema (plethysmometer)
Method: Further, the investigations were carried out to determine the anti-inflammatory activities of the molecule of the present invention. Wistar rats weighing between 160-210 gm were divided into 6 groups of 10 animals each. Group I served as control (Placebo) and receive CMC and Group II & III received anti-inflammatory control (positive control) (Diclofenac & Indomethacin respectively). Group IV to VI were treated orally with test formulations. After 15 min. of drug administration, inflammation was induced by injecting 0.1 ml of freshly prepared 1% carrageenin (in normal saline) into the left hind paw of the rat. The paw volume of the […] was measured by measuring the displace fluid in other hand of plethysmometer.
Indomethacin (15 mg/kg and declofenac (10 mg/kg) was used as reference product. Percent increased in rat paw edema was measured and compare to normal control at each time intervals.
The antiinflammatory activity was assessed plethysmographically using following time points after the administration of carrageenan, 1 hr, 2 hrs, 3 hrs and 5 hrs.

mice = assay: Central analgesic activity, tail flick analgesiometer; conditions: mouse, in vivo
swiss albino mice [3] = assay: Skeletal muscle relaxant activity, Rota rod apparatus, first experiment (oxalate salts, dose groups); conditions: at the doses mentioned
Method: Control group receiving only vehicle served as a placebo in the study.
The test formulations were administered by oral route through gavage tube.(p.o.).
Two efficacy variables were assessed during the experiment: 1. Percent animal falling from the rod was noted; 2. Endurance Time (ET): The time taken for a mouse to fall from the rod was taken as endurance time. […] These efficacy variables were assessed at five time points 0 hr, 1 hr, 2 hr, 4 hr, and 6 hr for each and every animal.

SMILES: Cl.O[C@H](CNc1ccccn1)c1ccccc1 [(+) Phenyramidol Hydrochloride, (S)-Phenyramidol Hydrochloride Salt]
- skeletal muscle relaxant activity (summary statement) (swiss albino mice [1]): enhanced skeletal muscle relaxant activity
- Average no. of writhes (swiss albino mice [2]; Table 6, dose 600 mg (human daily dose extrapolated to mice), mean ± SD, n = 10): 5.00 ± 4.64*
- analgesic activity by decrease in the number of writhes induced by acetic acid (swiss albino mice [2]; experiment of Table 6, lesser dosage levels): significant analgesic activity

SMILES: O=C(O)C(=O)O.O[C@H](CNc1ccccn1)c1ccccc1 [Phen 2, (S)-Phenyramidol Oxalate]
- Thickness of Joint (in cm) 0 hr (rats; 0 hr (initial), Phen 3 2400 mg, Phen 2 and Phen 4 1200 mg human daily dose extrapolated to rats, Diclofenac sodium 2 mg/Kg): 0.45 ± 0.06 cm
- Thickness of Joint (in cm) 2 hr (rats; 2 hr after formalin, Phen 3 2400 mg, Phen 2 and Phen 4 1200 mg human daily dose extrapolated to rats, Diclofenac sodium 2 mg/Kg): 0.59 ± 0.03 cm
- Thickness of Joint (in cm) 4 hr (rats; 4 hr after formalin, doses as E38): 0.56 ± 0.04 cm
- Thickness of Joint (in cm) 8 hr (rats; 8 hr after formalin, doses as E38): 0.60 ± 0.06 cm
- Thickness of Joint (in cm) 24 hr (rats; 24 hr after formalin, doses as E38): 0.54 ± 0.05 cm
- Thickness of Joint (in cm) 48 hr (rats; 48 hr after formalin, doses as E38): 0.52 ± 0.04 cm
- Thickness of Joint (in cm) 72 hr (rats; 72 hr after formalin, doses as E38): 0.50 ± 0.03 cm
- % Increase in Paw volume 1 HR (Wistar rats; 1 HR after carrageenan, oral, racemate 2400 mg, isomers 1200 mg human daily dose extrapolated to rats, Indomethacin 15 mg/kg, diclofenac 10 mg/kg): 25.82 ± 11.67%
- % Increase in Paw volume 2 HR (Wistar rats; 2 HR after carrageenan, doses as E46): 40.57 ± 10.07%
- % Increase in Paw volume 3 HR (Wistar rats; 3 HR after carrageenan, doses as E46): 66.59 ± 20.88%
- % Increase in Paw volume 5 HR (Wistar rats; 5 HR after carrageenan, doses as E46): 48.71 ± 15.16%
- Tail Flick Reaction Time (Sec.) 1 hr. (mice): 4.31 ± 1.754 s
- Tail Flick Reaction Time (Sec.) 4 hr. (mice): 2.46 ± 0.591 s
- Average no. of writhes (swiss albino mice [2]; Table 4, oral, writhes counted 15 minutes, Phen3 human daily dose 2400 mg, Phen2 and Phen 4 1200 mg extrapolated to mice, Diclofenac and Pentazocine 2 mg/kg): 13.08 ± 9.93*
- Average no. of writhes (swiss albino mice [2]; Table 5, dose 1200 mg (human daily dose extrapolated to mice), mean ± SD, n = 10): 11.90 ± 8.43*
- Average no. of writhes (swiss albino mice [2]; Table 5, dose 1800 mg (human daily dose extrapolated to mice), mean ± SD, n = 10): 8.80 ± 6.78*
- Average no. of writhes (swiss albino mice [2]; Table 5, dose 2000 mg (human daily dose extrapolated to mice), mean ± SD, n = 10): 8.20 ± 7.30*
- Average no. of writhes (swiss albino mice [2]; Table 5, dose 2400 mg (human daily dose extrapolated to mice), mean ± SD, n = 10): 6.00 ± 5.66*
- analgesic activity by decrease in the number of writhes induced by acetic acid (swiss albino mice [2]; experiment of Table 4): significant analgesic activity
- analgesic activity by decrease in the number of writhes induced by acetic acid (swiss albino mice [2]; experiment of Table 5 (variable doses)): significant analgesic activity
- skeletal muscle relaxant activity (conclusion) (swiss albino mice [3]): exhibit skeletal muscle relaxant activity
